From patent US9034906B2, “EP4 agonist” (Asahi Glass Company, Limited, priority 2008, dated 2015) come the findings set out here.

Format in all cases: in vivo, mouse
Assay [1] has as its system dextran sodium sulfate-induced colitis. The assay is described as follows: Dextran sodium sulfate-induced colitis model in mice (C57BL/6). The following applies: C57BL/6 mice, DSS, oral 0.3 and 1 mg/kg once a day. The procedure: Whether or not an IP agonist has an effect on such colitis model was determined using a selective IP agonist, BPS.
Female C57BL/6 mice (6 weeks old, Japan SLC) were purchased, acclimated for 1 week and used for the study. Except the normal group, the mice were allowed to freely drink a 3 or 2 w/v % DSS (MP Biochemicals, Lot No. 5653H and 5464H, respectively) solution for 1 week to induce colitis. BPS at a dose of 0.3 mg/kg and compound F at doses of 0.3 and 1 mg/kg were orally administered once a day, daily, from the start day of DSS drinking (day 0) to one day before autopsy (day 9). To the control group was orally administered a solvent (1 vol % ethanol solution) at 10 mL/kg in the same manner. The consistency of the stool was graded from score 0 to 4, with normal (0), partly loose stool (1), loose stool (2) and diarrhea (4). The blood feces was also graded from score 0 to 4, with normal (0), partly blood feces (1), blood feces (2) and blood feces plus proctorrhagia (4). The sum of both grades was defined as the stool score (maximum 8). Furthermore, the length of the large intestine was measured in the same manner as in Example 23. Six to 10 animals were used for each group, and the results are shown in average±standard deviation.

Another assay concerns T cell transfer colitis. The assay is described as follows: CD4+CD25- T cell transfer colitis model in mice. The following applies: C.B-17/Icr-scid mice, oral 1 mg/kg once a day. The text has this:
The effect on Crohn's disease, another type of inflammatory bowel disease, was studied. T cell transfer model is well known as a Crohn's disease model, which develops chronic […] or enteritis (see: References F, G, H). In addition, it can also be regarded as an animal model of intestinal Behcet's disease or simple ulcer, suffering from similar intestinal ulcer accompanied by activation of T cells (see: References I, J).
Female BALB/cA Jcl mice, 6 weeks old, body weight 19-23 g (CLEA Japan, Inc.) and female C.B-17/Icr-scid mice (6 weeks old, CLEA Japan, Inc.) were purchased, acclimated for 1 week and used for the study.
After laparotomy under ether anesthesia, BALB/cA Jcl mice were exsanguinated to death through the abdominal aorta and caudal vena cava, and the spleen was isolated. Splenocytes were prepared from the spleen and then CD4^+CD25^− T cells were prepared with a CD4^+ T cell Isolation Kit (No. 130-090-860, Milky Biotech Co., Ltd.) and CD25-Biotin antibody (No. 130-092-569, Milky Biotech Co., Ltd.). The cells were separated using the autoMACS Separator (Milky Biotech Co., Ltd.). The separated CD4^+CD25^− T cells were suspended in physiological phosphate buffer solution, and 2.5×10^5 cells per animal were intraperitoneally administered to C.B-17/Icr-scid mice to induce colitis.
One mg/kg of compound F or prednisolone was initially administered at 5 hr before transfer of CD4^+CD25^− T cells, and orally administered thereafter once a day, daily, for 20 days. To the control group was orally administered a solvent (1 vol % ethanol solution) at 10 mL/kg. A clinical endpoint was the sum of stool consistency score (0-5), fecal occult blood score (0-4) and body weight decrease score (0-5), termed as the Disease Activity Index score (hereinafter to be abbreviated as DAI score: highest score 14). The stool consistency score was graded for the hardness of stool as normal (0), slightly loose (1), somewhat loose (2), loose (3), considerably loose (4) and diarrhea (5). The fecal occult blood score was evaluated in the same manner as in Example 23. The body weight decrease score was graded for the changes in the body weight as increase (0), decrease of less than 3% (1), decrease of not less than 3% and less than 6% (2), decrease of not less than 6% and less than 9% (3), decrease of not less than 9% and less than 12% (4), and decrease of not less than 12% (5). Eight to 10 mice were used for each group and the results were expressed as average.

The subject of assay [2] is concanavalin A-induced hepatitis. The assay is described as follows: Concanavalin A-induced hepatitis model in mice, prophylactic. The following applies: BALB/c mice, oral 1 hr before Con A; compound F 1 mg/10 mL/kg, prednisolone 5 mg/10 mL/kg. As for the experimental part:
The prophylactic effect of compound F on hepatitis was investigated using concanavalin A (hereinafter Con A)-induced hepatitis model.
BALB/c mice (female, 7 weeks old, Japan SLC) were purchased, acclimated for 1 week and used for the study. Except the no-induction group, Con A (type IV, Sigma-Aldrich) dissolved in saline was administered from the tail vein of the mice at a dose of 12.5 mg/10 mL/kg to induce hepatitis. Twenty hr later, the mice were subjected to laparotomy under ether anesthesia. A 0.5 mL of blood sample was collected from the caudal vena cava and heparinized plasma was obtained to measure plasma ALT and AST activities. Test substances were compound F (1 mg/10 mL solution), prednisolone (Nacalai Tesque, 5 mg/10 mL suspension (with 0.5 w/v % methylcellulose)) and water for injection (administered to the control group), which were orally administered at a volume of 10 mL/kg 1 hr before Con A injection. Seven to 9 animals were used for each group. After logarithmic transformation of the data, one-way analysis of variance was performed for statistical evaluation.

In the case of `Cc1cccc([C@@H](C)[C@H](O)/C=C/[C@@H]2[C@@H]3[C@H](C[C@H]2O)O/C(=C\CCCc2nnn[nH]2)C3(F)F)c1` [Compound F, 4-[(Z)-(1S,5R,6R,7R)-6-[(1E,3R,4R)-3-hydroxy-4-(m-tolyl)-1-pentenyl]-7-hydroxy-2-oxa-4,4-difluoro-bicyclo[3.3.0]octan-3-ylidene]-1-(tetrazol-5-yl)butane], the “Effect on the onset of colitis (stool score, colon shortening)” value in assay [1] was “superior prophylactic effect”. In the assay on T cell transfer colitis, the DAI score entry was “comprehensively superior to prednisolone”; the “Effect on body weight decrease score” value is recorded as “prevented the increase in the body weight decrease score almost completely”; the “Effect on fecal occult blood score” value is “suppressed the increases in both the stool consistency score and the fecal occult blood score by almost half”; the “Effect on stool consistency score” value is “suppressed the increases in both the stool consistency score and the fecal occult blood score by almost half”. Also, in assay [2], the “Effect on increase of plasma ALT and plasma AST activities” value is “significantly and strongly suppressed the increase”.
